Data taken from PubChem BioAssay AID180 (DTP/NCI, 2004).
Where “and” joins values, the source holds several entries; their conditions need not be identical. Equal entries are not always repeated.

Tested on: BDF1 mice, Adenocarcinoma 755 s.c., tumor weight T/C
Assay: NCI In Vivo Anticancer Drug Screen. Data for tumor model Adenocarcinoma 755 (subcutaneous) in B6D2F1 (BDF1) mice
Details: endpoint: mean tumor weight, higher = larger tumour
In short: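 Compound activity was tested in mice carrying transplanted tumors. Survival or tumor size was measured, and each value is the treated-group measurement divided by that of the vehicle-treated control group (T/C).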

[1] = dose: 30.0 mg/kg/injection, schedule: Q01DX011 (ip), vehicle: carboxymethylcellulose (CMC)
[2] = dose: 25.0 mg/kg/injection, schedule: Q01DX011 (ip), vehicle: saline
[3] = dose: 25.0 mg/kg/injection, schedule: Q01DX011 (ip), vehicle: methylcellulose (MC)
[4] = dose: 75.0 mg/kg/injection, schedule: Q01DX011 (ip), vehicle: methylcellulose (MC)
[5] = dose: 225.0 mg/kg/injection, schedule: Q01DX011 (ip), vehicle: methylcellulose (MC)
[6] = dose: 3.12 mg/kg/injection, schedule: Q01DX011 (ip), vehicle: methylcellulose (MC)
[7] = dose: 6.25 mg/kg/injection, schedule: Q01DX011 (ip), vehicle: methylcellulose (MC)
[8] = dose: 12.5 mg/kg/injection, schedule: Q01DX011 (ip), vehicle: methylcellulose (MC)
[9] = dose: 7.5 mg/kg/injection, schedule: Q01DX011 (ip), vehicle: methylcellulose (MC)

CCOC(=O)CN=NNc1nc[nH]c1C(N)=O
T/C (dose: 56.0 mg/kg/injection, schedule: Q01DX011 (ip), vehicle: carboxymethylcellulose (CMC)): 58 % of control
T/C (dose: 112.0 mg/kg/injection, schedule: Q01DX011 (ip), vehicle: carboxymethylcellulose (CMC)): 106 % of control
T/C (dose: 175.0 mg/kg/injection, schedule: Q01DX011 (ip), vehicle: carboxymethylcellulose (CMC)): 81 % of control
T/C (dose: 225.0 mg/kg/injection, schedule: Q01DX011 (ip), vehicle: carboxymethylcellulose (CMC)): 27 % of control
T/C (dose: 350.0 mg/kg/injection, schedule: Q01DX011 (ip), vehicle: carboxymethylcellulose (CMC)): 58 % of control

O=C(CC[n+]1ccccc1)N1CCN(C(=O)CC[n+]2ccccc2)CC1
T/C (dose: 1.0 mg/kg/injection, schedule: Q01DX011 (ip), vehicle: methylcellulose (MC)): 94 % of control
T/C (dose: 3.0 mg/kg/injection, schedule: Q01DX011 (ip), vehicle: methylcellulose (MC)): 68 % of control

Cn1cnc2c(Cl)nc(C(F)(F)F)nc21
T/C [1]: 80 % of control

Nc1ncnc2c1ncn2CCN(CCO)CCO
T/C [2]: 172 % of control
T/C (dose: 225.0 mg/kg/injection, schedule: Q01DX011 (ip), vehicle: saline): 158 % of control

O=C(CCCl)N1CCN(c2ccccc2)CC1
T/C [3]: 51 % of control
T/C [4]: 61 % of control
T/C [5]: 60 % of control

CC(=O)C(CCC(=O)O)(CCC(=O)O)c1ccccc1
T/C (dose: 30.0 mg/kg/injection, schedule: Q01DX011 (ip), vehicle: other): 87 % of control
T/C (dose: 60.0 mg/kg/injection, schedule: Q01DX011 (ip), vehicle: other): 71 % of control
T/C (dose: 120.0 mg/kg/injection, schedule: Q01DX011 (ip), vehicle: other): 117 % of control
T/C (dose: 240.0 mg/kg/injection, schedule: Q01DX011 (ip), vehicle: other): 97 % of control

CSc1nc(C)c(Br)c(Sc2nc(N)nc3nc[nH]c23)n1
T/C (dose: 0.3 mg/kg/injection, schedule: Q01DX011 (ip), vehicle: carboxymethylcellulose (CMC)): 106 % of control
T/C (dose: 0.7 mg/kg/injection, schedule: Q01DX011 (ip), vehicle: carboxymethylcellulose (CMC)): 117 % of control
T/C (dose: 6.0 mg/kg/injection, schedule: Q01DX011 (ip), vehicle: carboxymethylcellulose (CMC)): 42 % of control
T/C (dose: 12.0 mg/kg/injection, schedule: Q01DX011 (ip), vehicle: carboxymethylcellulose (CMC)): 28 % of control
T/C (dose: 24.0 mg/kg/injection, schedule: Q01DX011 (ip), vehicle: carboxymethylcellulose (CMC)): 6 % of control

Cc1cccc(Nc2c(N)nc(N)nc2N)c1
T/C (dose: 11.0 mg/kg/injection, schedule: Q01DX011 (ip), vehicle: carboxymethylcellulose (CMC)): 50 % of control
T/C (dose: 22.0 mg/kg/injection, schedule: Q01DX011 (ip), vehicle: carboxymethylcellulose (CMC)): 61 % of control
T/C (dose: 44.0 mg/kg/injection, schedule: Q01DX011 (ip), vehicle: carboxymethylcellulose (CMC)): 32 % of control
T/C (dose: 88.0 mg/kg/injection, schedule: Q01DX011 (ip), vehicle: carboxymethylcellulose (CMC)): 48 % of control

CCCCn1cnc2c(SCc3ccncc3)nc(N)nc21
T/C [6]: 35 % of control
T/C [7]: 106 % of control
T/C [8]: 19 % of control
T/C [3]: 1 % of control and 13 % of control

C=CC(O)CN1CC1=C (stereo unspecified) (tested in a mixture with another compound)
T/C (dose: 1.9 mg/kg/injection, schedule: Q01DX011 (ip), vehicle: methylcellulose (MC)): 95 % of control
T/C (dose: 3.75 mg/kg/injection, schedule: Q01DX011 (ip), vehicle: methylcellulose (MC)): 121 % of control
T/C [9]: 106 % of control
T/C (dose: 15.0 mg/kg/injection, schedule: Q01DX011 (ip), vehicle: methylcellulose (MC)): 49 % of control

CC1CCN(C(=O)CCCl)c2ccccc21 (stereo unspecified)
T/C [3]: 101 % of control
T/C [4]: 71 % of control
T/C [5]: 82 % of control

CN(CC(=O)O)C(=N)N
T/C (dose: 1500.0 mg/kg/injection, schedule: Q#A X022 (ip), vehicle: water): 86 % of control
T/C (dose: 2500.0 mg/kg/injection, schedule: Q#A X022 (ip), vehicle: water): 66 % of control

S=P(Oc1ccccc1)(N1CC1)N1CC1
T/C (dose: 55.0 mg/kg/injection, schedule: Q01DX011 (ip), vehicle: methylcellulose (MC)): 22 % of control and 42 % of control and 44 % of control
T/C (dose: 220.0 mg/kg/injection, schedule: Q01DX011 (ip), vehicle: methylcellulose (MC)): 20 % of control

Nc1cccc2c(=O)[nH][nH]c(=O)c12
T/C (dose: 62.5 mg/kg/injection, schedule: Q01DX011 (ip), vehicle: water): 71 % of control
T/C (dose: 125.0 mg/kg/injection, schedule: Q01DX011 (ip), vehicle: water): 82 % of control
T/C (dose: 250.0 mg/kg/injection, schedule: Q01DX011 (ip), vehicle: water): 59 % of control

c1ccn(-c2nc(-n3cccc3)nc(-n3cccc3)n2)c1
T/C (dose: 31.25 mg/kg/injection, schedule: Q01DX011 (ip), vehicle: carboxymethylcellulose (CMC)): 72 % of control
T/C (dose: 62.5 mg/kg/injection, schedule: Q01DX011 (ip), vehicle: carboxymethylcellulose (CMC)): 86 % of control
T/C (dose: 125.0 mg/kg/injection, schedule: Q01DX011 (ip), vehicle: carboxymethylcellulose (CMC)): 73 % of control
T/C (dose: 250.0 mg/kg/injection, schedule: Q01DX011 (ip), vehicle: carboxymethylcellulose (CMC)): 17 % of control and 38 % of control

CS(=O)(=O)OCCC(=O)NCCNC(=O)CCOS(C)(=O)=O
T/C (dose: 6.3 mg/kg/injection, schedule: Q01DX011 (ip), vehicle: saline): 167 % of control
T/C (dose: 10.0 mg/kg/injection, schedule: Q01DX011 (ip), vehicle: saline): 64 % of control
T/C (dose: 20.0 mg/kg/injection, schedule: Q01DX011 (ip), vehicle: saline): 120 % of control
T/C [3]: 4 % of control
T/C [2]: 65 % of control
T/C (dose: 30.0 mg/kg/injection, schedule: Q01DX011 (ip), vehicle: saline): 20 % of control
T/C (dose: 40.0 mg/kg/injection, schedule: Q01DX011 (ip), vehicle: saline): 12 % of control
T/C (dose: 50.0 mg/kg/injection, schedule: Q01DX011 (ip), vehicle: saline): 5 % of control and 10 % of control
T/C (dose: 60.0 mg/kg/injection, schedule: Q01DX011 (ip), vehicle: saline): 1 % of control

CC1(C)O[C@@H]2C[C@H]3[C@@H]4CCC5=CC(=O)CC[C@]5(C)[C@@]4(F)[C@@H](O)C[C@]3(C)[C@]2(C(=O)CO)O1
T/C (dose: 0.3 mg/kg/injection, schedule: Q01DX011 (sc), vehicle: steriod suspending solution): 60 % of control
T/C (dose: 0.7 mg/kg/injection, schedule: Q01DX011 (sc), vehicle: steriod suspending solution): 42 % of control
T/C (dose: 0.75 mg/kg/injection, schedule: Q01DX011 (sc), vehicle: steriod suspending solution): 82 % of control
T/C (dose: 6.0 mg/kg/injection, schedule: Q01DX011 (sc), vehicle: steriod suspending solution): 36 % of control
T/C (dose: 6.25 mg/kg/injection, schedule: Q01DX011 (sc), vehicle: steriod suspending solution): 41 % of control
T/C (dose: 12.0 mg/kg/injection, schedule: Q01DX011 (sc), vehicle: steriod suspending solution): 16 % of control
T/C (dose: 12.5 mg/kg/injection, schedule: Q01DX011 (sc), vehicle: steriod suspending solution): 31 % of control
T/C (dose: 24.0 mg/kg/injection, schedule: Q01DX011 (sc), vehicle: steriod suspending solution): 8 % of control (2×) and 14 % of control
T/C (dose: 25.0 mg/kg/injection, schedule: Q01DX011 (sc), vehicle: steriod suspending solution): 20 % of control
T/C (dose: 48.0 mg/kg/injection, schedule: Q01DX011 (sc), vehicle: steriod suspending solution): 8 % of control

C/C(=N\NC(=O)c1ccncc1)c1cccc(Cl)c1
T/C [9]: 47 % of control and 50 % of control
T/C (dose: 30.0 mg/kg/injection, schedule: Q01DX011 (ip), vehicle: methylcellulose (MC)): 31 % of control

Cn1c(=N)nc(SCc2ccccc2Cl)c2[nH]cnc21
T/C [1]: 88 % of control
T/C (dose: 60.0 mg/kg/injection, schedule: Q01DX011 (ip), vehicle: carboxymethylcellulose (CMC)): 118 % of control
T/C (dose: 120.0 mg/kg/injection, schedule: Q01DX011 (ip), vehicle: carboxymethylcellulose (CMC)): 88 % of control
T/C (dose: 240.0 mg/kg/injection, schedule: Q01DX011 (ip), vehicle: carboxymethylcellulose (CMC)): 16 % of control

Ic1ncnc2c1ncn2C1CCCO1 (stereo unspecified)
T/C (dose: 50.0 mg/kg/injection, schedule: Q01DX011 (ip), vehicle: carboxymethylcellulose (CMC)): 94 % of control
T/C (dose: 100.0 mg/kg/injection, schedule: Q01DX011 (ip), vehicle: carboxymethylcellulose (CMC)): 84 % of control

CC(Cl)CN(Cc1cc(O)c(CN(CC(C)Cl)CC(C)Cl)cc1O)CC(C)Cl (stereo unspecified)
T/C (dose: 125.0 mg/kg/injection, schedule: Q01DX011 (ip), vehicle: methylcellulose (MC)): 58 % of control

Nc1ncnc2c1ncn2C(C=O)OC(C=O)CO (stereo unspecified)
T/C (dose: 15.0 mg/kg/injection, schedule: Q01DX011 (ip), vehicle: carboxymethylcellulose (CMC)): 93 % of control

CCCCn1cnc2c(SC(C)C)nc(N)nc21
T/C (dose: 1.56 mg/kg/injection, schedule: Q01DX011 (ip), vehicle: methylcellulose (MC)): 64 % of control
T/C [6]: 57 % of control
T/C [7]: 14 % of control and 24 % of control
T/C [8]: 3 % of control and 8 % of control
